Data reported in US11753376B2, “Benzyloxy pyridine derivatives and uses thereof” (AUTOTAC INC., priority 2021, dated 2023).

Test system: intracellular autophagy flux (LC3-II) in HEK293T cell line
Experiment: Evaluation of intracellular autophagy activity (autophagy flux) by immunoblotting
Type: cell-based, human
Conditions: HCQ 5 μM, 24 hours
Procedure: In order to evaluate the autophagy flux activity efficacy by the compounds, the HEK293T cell line, which is a cell line derived from a human embryonic kidney-derived cell, was cultured using a DMEM medium containing 10% FBS and 1% streptomycin/penicillin in an incubator with 5% carbon dioxide. In order to measure the autophagy flux activity according to the treatment of the compounds synthesized in the above examples, each cell was dispensed in a 6-well plate. Additional incubation was carried out for 24 hours so that the cells were completely attached to the surface of the plate. Cells were collected after treatment with the compound (5 μM) alone or with the lysosomal inhibitor, hydroxychloroquine (HCQ) (5 μM) for 24 hours to determine whether the compound increases autophagy flux. […] Based on the measured total protein concentration, a sample buffer was added to each sample and reacted at 100° C. for 5 minutes. […]
FIG. 2 is a result of immunoblotting showing the efficacy of the compound (ATB1110) to activate intracellular autophagy flux. […] As HCQ was treated, the level of LC3-II, a marker of autophagy activity, was increased, and the difference between LC3-II in the untreated state and the treated state was measured. […]

Q: Which “level of LC3-II, a marker of autophagy activity” value does the source give for `CCN(CCO)CCCC(C)Nc1ccnc2cc(Cl)ccc12` (stereo not shown) [HCQ, hydroxychloroquine] here?
A: Its value is “increased”.
